Tested on: moderate-to-severe chronic spontaneous urticaria (CSU)
Test: Phase 2 CSU study: urticaria activity score over 7 days (UAS7)
Format: in vivo, human
Parameters: key to UAS7 Median / UAS7 Change from baseline Median / UAS7 change from baseline, Q1 / UAS7 change from baseline, Q3 / UAS7 change from baseline, Max / UAS7 Change from baseline LS Mean (SE): UAS7 points; daily UAS score ranges 0–6 points/day, over 7 days
From the text: The study comprises a 12 week, randomized, double-blind, placebo-controlled, multi-center, dose-ranging efficacy and safety phase, followed by a 40 week open label extension (OLE) phase (see FIG. 1). The study consists of three phases and an optional OLE phase. […] Clinically, CSU is characterized by the spontaneous and recurrent appearance of pruritic hives. The proposed primary endpoints were the UAS7 at Week 12 in EU and EU reference countries and the ISS7 in the US. Regardless of where a participant was from, all assessments were the same. The UAS7 score is a composite score containing both the HSS7 and the ISS7. This allowed a global assessment of the two key components of urticaria: hives and itch. […] The UAS is a validated PRO measure. […] The daily UAS scores range from 0 to 6 point/day. […] Patients were to complete the UAS using the e-diary. […] The following secondary endpoints were to be analyzed using the same approach as for the primary endpoint: • Change from baseline in UAS7 at Week 4 • Change from baseline in UAS7 at Week 12 (for US and US reference countries) • Change from baseline in ISS7 at Week 12 (except US and US reference countries) • Change from baseline in HSS7 at Week 12 The following responder secondary endpoints were to be analyzed using the Cochran-Mantel-Haenszel test adjusted by region: • Proportion of participants with UAS7<6 at Week 12 • Proportion of participants with UAS7=0 at Week 12 Participants who received selected prohibited medications and/or rescue medications were to be considered as non-responders for time points after the medication usage. For other participants, all available data including those collected during the off-treatment period were to be used to determine the responder/non-responder status. Missing data were to be considered as non-responders.

[1] = Week 8, 400 mg BID, omalizumab-naive participants
[2] = Week 8, 400 mg QPM, ITT population
[3] = Week 8, 400 mg QPM, Omalizumab-Naïve
[4] = Week 8, 400 mg QPM, Prior Omalizumab Use
[5] = Week 8, 400 mg QPM, omalizumab-naive participants
[6] = Week 8, 400 mg TID, ITT population
[7] = Week 8, 400 mg TID, Omalizumab-Naïve
[8] = Week 8, 400 mg TID, Prior Omalizumab Use
[9] = Week 8, 400 mg TID, omalizumab-naive participants
[10] = Week 9, 400 mg BID, ITT population
[11] = Week 9, 400 mg BID, Omalizumab-Naïve
[12] = Week 9, 400 mg BID, Prior Omalizumab Use
[13] = Week 9, 400 mg BID, omalizumab-naive participants
[14] = Week 9, 400 mg QPM, ITT population
[15] = Week 9, 400 mg QPM, Omalizumab-Naïve

SMILES: CC(C)(C=C(C#N)C(=O)N1CCC[C@@H](n2nc(-c3ccc(Oc4ccccc4)cc3F)c3c(N)ncnc32)C1)N1CCN(C2COC2)CC1 [rilzabrutinib, (R)-2-[3-[4-amino-3-(2-fluoro-4-phenoxy-phenyl)pyrazolo[3,4-d]pyrimidin-1-yl]piperidine-1-carbonyl]-4-methyl-4-[4-(oxetan-3-yl)piperazin-1-yl]pent-2-enenitrile]
- RRD (%) for rilzabrutinib vs. placebo, UAS7 reduction of 10 points or more [1]: 24.0 %
- Responder, UAS7 reduction from baseline of 10 points or more [1]: 21 (60.0) n (%)
- Non-responder, UAS7 reduction from baseline of 10 points or more [2]: 21 (55.3) n (%)
- OR for rilzabrutinib vs. placebo, UAS7 reduction of 10 points or more [2]: 1.257
- RRD (%) for rilzabrutinib vs. placebo, UAS7 reduction of 10 points or more [2]: 5.3 %
- Responder, UAS7 reduction from baseline of 10 points or more [2]: 17 (44.7) n (%)
- UAS7 Change from baseline Mean (SD) [3]: −10.63 (9.70)
- UAS7 Change from baseline Median [3]: −10.80
- UAS7 Median [3]: 21.00
- UAS7 Percent change from baseline Mean (SD) [3]: −33.68 (30.26) %
- UAS7 Percent change from baseline Median [3]: −31.82%
- UAS7 Change from baseline Mean (SD) [4]: −25.00 (NC)
- UAS7 Change from baseline Median [4]: −25.00
- UAS7 Mean (SD) [4]: 16.00 (NC)
- UAS7 Median [4]: 16.00
- UAS7 Percent change from baseline Mean (SD) [4]: −60.98 (NC) %
- UAS7 Percent change from baseline Median [4]: −60.98%
- Non-responder, UAS7 reduction from baseline of 10 points or more [5]: 21 (56.8) n (%)
- OR for rilzabrutinib vs. placebo, UAS7 reduction of 10 points or more [5]: 1.331
- RRD (%) for rilzabrutinib vs. placebo, UAS7 reduction of 10 points or more [5]: 6.6 %
- Responder, UAS7 reduction from baseline of 10 points or more [5]: 16 (43.2) n (%)
- Non-responder, UAS7 reduction from baseline of 10 points or more [6]: 14 (34.1) n (%)
- RRD (%) for rilzabrutinib vs. placebo, UAS7 reduction of 10 points or more [6]: 23.2 %
- Responder, UAS7 reduction from baseline of 10 points or more [6]: 27 (65.9) n (%)
- UAS7 Change from baseline Mean (SD) [7]: −16.89 (10.13)
- UAS7 Change from baseline Median [7]: −15.17
- UAS7 Mean (SD) [7]: 13.36 (9.81)
- UAS7 Median [7]: 14.00
- UAS7 Percent change from baseline Mean (SD) [7]: −55.66 (31.25) %
- UAS7 Percent change from baseline Median [7]: −55.83%
- UAS7 Change from baseline Median [8]: −25.58
- UAS7 Mean (SD) [8]: 7.50 (11.26)
- UAS7 Median [8]: 3.00
- UAS7 Percent change from baseline Mean (SD) [8]: −78.96 (25.66) %
- UAS7 Percent change from baseline Median [8]: −84.90%
- Non-responder, UAS7 reduction from baseline of 10 points or more [9]: 13 (37.1) n (%)
- OR for rilzabrutinib vs. placebo, UAS7 reduction of 10 points or more [9]: 2.815
- RRD (%) for rilzabrutinib vs. placebo, UAS7 reduction of 10 points or more [9]: 25.7 %
- Responder, UAS7 reduction from baseline of 10 points or more [9]: 22 (62.9) n (%)
- Non-responder, UAS7 reduction from baseline of 10 points or more [10]: 20 (48.8) n (%)
- OR for rilzabrutinib vs. placebo, UAS7 reduction of 10 points or more [10]: 1.471
- RRD (%) for rilzabrutinib vs. placebo, UAS7 reduction of 10 points or more [10]: 10.6 %
- Responder, UAS7 reduction from baseline of 10 points or more [10]: 21 (51.2) n (%)
- UAS7 Change from baseline Median [11]: −17.00
- UAS7 Mean (SD) [11]: 14.64 (14.43)
- UAS7 Percent change from baseline Mean (SD) [11]: −53.27 (40.38) %
- UAS7 Percent change from baseline Median [11]: −59.77%
- UAS7 Change from baseline Mean (SD) [12]: −20.83 (19.15)
- UAS7 Change from baseline Median [12]: −27.00
- UAS7 Mean (SD) [12]: 11.17 (15.78)
- UAS7 Median [12]: 1.00
- UAS7 Percent change from baseline Mean (SD) [12]: −60.63 (52.86) %
- UAS7 Percent change from baseline Median [12]: −97.62%
- Non-responder, UAS7 reduction from baseline of 10 points or more [13]: 17 (48.6) n (%)
- OR for rilzabrutinib vs. placebo, UAS7 reduction of 10 points or more [13]: 1.764
- RRD (%) for rilzabrutinib vs. placebo, UAS7 reduction of 10 points or more [13]: 16.0 %
- Responder, UAS7 reduction from baseline of 10 points or more [13]: 18 (51.4) n (%)
- Non-responder, UAS7 reduction from baseline of 10 points or more [14]: 20 (52.6) n (%)
- OR for rilzabrutinib vs. placebo, UAS7 reduction of 10 points or more [14]: 1.452
- RRD (%) for rilzabrutinib vs. placebo, UAS7 reduction of 10 points or more [14]: 8.5 %
- Responder, UAS7 reduction from baseline of 10 points or more [14]: 18 (47.4) n (%)
- UAS7 Change from baseline Median [15]: −11.00
- UAS7 Mean (SD) [15]: 20.25 (10.25)
- UAS7 Median [15]: 19.33
- UAS7 Percent change from baseline Mean (SD) [15]: −36.26 (27.83) %
- UAS7 Percent change from baseline Median [15]: −32.58%

— patent US20260256792A1, “TREATMENT OF CHRONIC SPONTANEOUS URTICARIA BY ADMINISTERING (R)-2-[3-[4-AMINO-3-(2-FLUORO-4-PHENOXY-PHENYL)PYRAZOLO[3,4-D]PYRIMIDIN-1-YL]PIPERIDINE-1-CARBONYL]-4-METHYL-4-[4-(OXETAN-3-YL)PIPERAZIN-1-YL]PENT-2-ENENITRILE” (priority 2023, published 2026)
